Where two headings read alike, the source gives them in different places.
Assays:
[1] = test system: Human Monocytes (THP-1) cell line; conditions: 24 h
Procedure: The in vitro cytotoxicity was performed on Human Monocytes (THP-1) cell line to find the non-toxic concentrations of the test substances by WST-1 assay and evaluate their autophagic activity in Human Monocytes by CYTO-ID® Autophagy Detection Kit
About 10 mg of the test substances, N-(3-Aminopropyl)-1,4-butanediamine and N-α-Acetyl-N-β-alanyl-L-histidine were dissolved separately with 1 mL RPMI-1640 supplemented with 2% inactivated FBS to obtain a stock solution of 10 mg/mL concentration. Diluted the stock to desired concentrations for carrying out further studies.
THP-1 (Human Monocyte cells) was procured from NCCS, India. Stock cells were cultured in RPMI-1640 supplemented with 10% inactivated Fetal Bovine Serum (FBS), penicillin (100 IU/mL), streptomycin (100 μg/mL) and amphotericin B (5 μg/mL) in an humidified atmosphere of 5% CO2 at 37° C. until confluent. The stock cultures were grown in 25 cm^2 culture flasks and all experiments were carried out in 96 microtitre plates and 6 well plate (Tarsons India Pvt. Ltd., Kolkata, India).
The cell count was adjusted to 100,000 cells/mL using RPMI-1640 containing 10% FBS. To each well of the 96 well micro titre plate, 0.1 mL of the diluted cell suspension was added. After 24 h, 0.1 mL of different test concentrations were added in the micro titre plate. The untreated cells were maintained as cell control for comparison. The plate was then incubated at 37° C. for 24 h in 5% CO2 atmosphere, and microscopic examination was carried out and observations were noted. After 24 h, 20 μL of WST-1 added to each well and incubated for 3 h at 37° C. in 5% CO2 atmosphere. The plates were gently shaken and the absorbance was measured using a micro plate reader at a wavelength of 490 nm.

[2] = test system: Human Monocytes (THP-1) cell line; assay: Estimation of autophagy using flow cytometer by CYTO-ID Autophagy Detection Kit; assay type: cell-based; conditions: THP-1 cells in autophagy, 24 h treatment, amounts as in the group description
Procedure: [table] […] To each well of the 6 well plates, 2 mL of the diluted cell suspension was added. After 24 h, 1 mL of different test concentrations and combinations of test substances were added. […] THP-1 cells were incubated with Rapamycin, and test substances in a 6-well plate. Followed by incubation, cells from different groups were harvested and measured using CYTO-ID autophagy detection kit by flow cytometer. All the reagents, standard solutions and samples will be thawed to room temperature before use. The assay was carried out as per manufacturer's instructions.

**Q.** Which “Percentage cytotoxicity after treatment” value ([1]; 0.01 mg/mL) does the source give for NCCCCNCCCN [N-(3-Aminopropyl)-1,4-butanediamine] here?
**A.** 0.74 ± 0.25%

**Q.** What about the “Percentage cytotoxicity after treatment” value ([1]; 0.03 mg/mL) of the same compound?
**A.** 0.68 ± 2.30%

**Q.** What about the “Percentage cytotoxicity after treatment” value ([1]; 0.06 mg/mL) of the same compound?
**A.** 0.94 ± 0.18%

**Q.** And the “Percentage cytotoxicity after treatment” value ([1]; 0.07 mg/mL)?
**A.** 0.86 ± 2.08%

**Q.** What about the “Percentage cytotoxicity after treatment” value ([1]; 0.12 mg/mL) of the same compound?
**A.** 1.20 ± 0.87%

**Q.** What about the “Percentage cytotoxicity after treatment” value ([1]; 0.25 mg/mL) of the same compound?
**A.** 4.10 ± 1.63%

**Q.** What about the “Percentage cytotoxicity after treatment” value ([1]; 0.5 mg/mL) of the same compound?
**A.** 11.79 ± 3.36%

**Q.** What about the “Percentage cytotoxicity after treatment” value ([1]; 1 mg/mL) of the same compound?
**A.** 22.88 ± 2.80%

**Q.** And the “Percentage cytotoxicity after treatment” value ([1]; 5 mg/mL)?
**A.** 39.37 ± 1.37%

**Q.** What about the “Percentage cells expressed CYTO-ID” value [2] of the same compound?
**A.** 7.24%

**Q.** How did the “Percentage cells expressed CYTO-ID” value [2] turn out when CC(=O)NCCC(=O)N[C@@H](Cc1c[nH]cn1)C(=O)O [N-α-Acetyl-N-β-alanyl-L-histidine] was run?
**A.** 4.03%

**Q.** With CO[C@H]1C[C@@H]2CC[C@@H](C)[C@@](O)(O2)C(=O)C(=O)N2CCCC[C@H]2C(=O)O[C@H]([C@H](C)C[C@@H]2CC[C@@H](O)[C@H](OC)C2)CC(=O)[C@H](C)/C=C(\C)[C@@H](O)[C@@H](OC)C(=O)[C@H](C)C[C@H](C)/C=C/C=C/C=C/1C [Rapamycin, reference compound] as the compound, how does the “Percentage cells expressed CYTO-ID” value [2] read?
**A.** 18.85%

Source: patent US20250099531A1, “SYNERGISTIC COMPOSITIONS FOR ENHANCING TFEB-MEDIATED INTRACELLULAR CLEARANCE” (CELAGENEX RESEARCH (INDIA) PVT. LTD., priority 2022, published 2025)
